For one molecule, IC50 results are on record in patent US7320989B2, “Pyridine, pyrimidine, quinoline, quinazoline, and naphthalene urotensin-II receptor antagonists” (Encysive Pharmaceuticals, Inc., priority 2003, dated 2008).

SMILES strings stand for the structures.

In general, IC50 refers to the concentration that gives 50% inhibition. The low end stands for higher potency, the high end for lower potency.

The target in the test is T1, human urotensin-II receptor (UTR cells) (Homo sapiens, UniProt Q9UKP6).
T1 construct: host or cells: 'UTR cells': TE-671 rhabdomyosarcoma cells (endogenous) or CHO cells stably expressing recombinant UTR
T1 sequence (Q9UKP6 1-389): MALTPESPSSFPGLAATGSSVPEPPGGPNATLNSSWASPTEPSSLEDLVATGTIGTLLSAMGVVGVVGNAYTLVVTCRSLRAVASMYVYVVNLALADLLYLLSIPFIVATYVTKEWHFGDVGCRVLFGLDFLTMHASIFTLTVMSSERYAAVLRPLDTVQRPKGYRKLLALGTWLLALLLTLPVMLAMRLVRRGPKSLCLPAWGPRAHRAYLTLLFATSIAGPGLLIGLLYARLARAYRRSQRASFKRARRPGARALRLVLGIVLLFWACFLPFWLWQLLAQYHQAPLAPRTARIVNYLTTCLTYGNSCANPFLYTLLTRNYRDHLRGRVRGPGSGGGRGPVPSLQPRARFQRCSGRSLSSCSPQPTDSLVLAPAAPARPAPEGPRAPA
Nature of the test: Inhibition of human urotensin-II-induced Ca2+ mobilization in UTR cells. The following applies: inhibition of signal induced by 1 nM human U-II, fluo-4AM, FlexStation. Type of test: cell-based. As to the method:
1) Inhibition of Human Urotensin-II-Induced Ca^2+ Mobilization in UTR Cells:
The function of urotensin-II was determined by measuring ligand-induced mobilization of intracellular Ca^2+ in a FlexStation scanning fluorometer (Molecular Devices). UTR cells were plated overnight at 50,000 cells/well in 96-well black/clear plates (Costar brand, Fisher 07-200-588). Cells were labeled with fluo-4AM dye (Molecular Probes, F-14201) in Hank's balanced salt solution (HBSS), 20 mM HEPES, 25 mM probenecid, pH 7.4, and then were washed with buffer. During the assay, cells were continuously monitored in the FlexStation and exposed to test compounds at a final concentration of 0.1% DMSO, followed by the addition of 1 nM human U-II. Fluorescence was read every 2 seconds for 2 minutes. The excitation and emission wavelengths used were 485 nm and 525 nm. Inhibition of the urotensin-II-induced signal was calculated using a nonlinear least square fitting program.

`CN(C)CCOc1cc(Nc2ccnc3cc(C(F)(F)F)ccc23)ccc1Cl` [Example 7, (4-chloro-3-(2-dimethylamino-ethoxy)-phenyl)-(7-trifluoromethyl-quinolin-4-yl)-amine] had an IC50 of 6.5 µM. This lies in the single-digit micromolar range.
